Measured values reported in PubChem BioAssay (NCI).
Several values for one entry are separate records, joined by “and”; a condition that tells them apart may be missing. Equal values may be shown once.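 A five-concentration, 48-hour dose response in 96-well plates underlies each endpoint, interpolated linearly between surrounding concentrations. GI50 = concentration required for 50% inhibition of growth. TGI denotes the concentration required for complete inhibition of growth.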

What was measured:
Assay in all cases: NCI tumour cell line growth inhibition, 48 h
OVCAR-8 ovarian = test system: OVCAR-8 ovarian
MCF7 breast = test system: MCF7 breast
KM12 colon = test system: KM12 colon
ACHN renal = test system: ACHN renal
K-562 leukemia = test system: K-562 leukemia
MDA-MB-231 breast = test system: MDA-MB-231 breast
MALME-3M melanoma = test system: MALME-3M melanoma
UO-31 renal = test system: UO-31 renal
UACC-62 melanoma = test system: UACC-62 melanoma
M14 melanoma = test system: M14 melanoma

Row | Structure (SMILES) | GI50 (OVCAR-8 ovarian) [µM] | TGI (OVCAR-8 ovarian) [µM] | GI50 (MCF7 breast) | TGI (MCF7 breast) [µM] | GI50 (KM12 colon) [µM] | TGI (KM12 colon) [µM] | GI50 (ACHN renal) | TGI (ACHN renal) [µM] | GI50 (K-562 leukemia) [µM] | TGI (K-562 leukemia) [µM] | GI50 (MDA-MB-231 breast) | TGI (MDA-MB-231 breast) [µM] | GI50 (MALME-3M melanoma) [µM] | TGI (MALME-3M melanoma) [µM] | GI50 (UO-31 renal) | TGI (UO-31 renal) [µM] | GI50 (UACC-62 melanoma) | TGI (UACC-62 melanoma) [µM] | GI50 (M14 melanoma) [µM] | TGI (M14 melanoma) [µM]
1 | CNC(=S)N/N=C/CSC/C=N/NC(=S)NC | > 100 | > 100 | 1.85 µM | > 100 | > 100 | > 100 | > 100 µM | > 100 | 3.08 | > 100 | > 100 µM | > 100 | > 100 | > 100 | > 100 µM | > 100 | > 100 µM | > 100 | > 100 | > 100
2 | CC(C)CC(=O)O[C@H]1C(=O)O[C@@H]2C[C@H]3[C@H](C)C(=O)C(O[C@@H]4O[C@H](CO)[C@@H](O)[C@H](O)[C@H]4O)=C[C@]3(C)[C@H]3[C@@H](O)[C@H](O)[C@]4(C(=O)O)OC[C@]32[C@@H]14 | > 100 | > 100 | 28 µM | > 100 | – | > 100 | > 100 µM | > 100 | 24 | > 100 | > 100 µM | > 100 | 22.8 | 56.3 | – | > 100 | – | > 100 | – | > 100
3 | O=c1[nH]c(-c2ccncc2)nc2sc3c(c12)CCCCCC3 | > 100 | > 100 | > 100 µM | > 100 | > 100 | > 100 | > 100 µM | > 100 | > 100 | > 100 | > 100 µM | > 100 | > 100 | > 100 | > 100 µM | > 100 | > 100 µM | > 100 | > 100 | > 100
4 | CS(=O)c1cc(=O)c2ccccc2s1 (stereo not given) | – | 8.09 | – | 14.4 | – | 28.4 | – | 3.66 | – | 7.57 | – | 32.8 | – | 4.53 | – | 22.3 | – | 17.6 | – | 3.12
5 | Fc1cnccc1-c1nc2ccc3[nH]ncc3c2c2c1CCCC2 | 2.1 | > 100 | 1.93 µM | 12.1 | 0.605 | > 100 | 0.466 µM | > 100 | 2.63 | > 100 | 2.3 µM | > 100 | 2.76 | 9.06 | 1.91 µM | 8.04 | 1.44 µM | 5.75 | 1.58 | > 100
6 | C=C(C)[C@@H]1CC[C@]2(C(=O)OC)CC[C@]3(C)[C@H](CC[C@@H]4[C@@]5(C)CC/C(=N\OCCC(=NCCC#N)NOCCC#N)C(C)(C)[C@@H]5CC[C@]43C)[C@@H]12 | 9.66 | > 50 | 3.68 µM | > 50 | 9.35 | > 50 | 10.5 µM | > 50 | 2.23 | > 50 | 10.3 µM | > 50 | 11.8 | > 50 | 15.6 µM | > 50 | 2.32 µM | 12.6 | 11.9 | > 50
7 | N=C(N)c1ccc(-c2ccc(-c3cccs3)s2)cc1F | 2.04 | 5.19 | 0.5 µM | 2.26 | 1.01 | 2.38 | 1.45 µM | 2.93 | 0.341 | 1.31 | 1.16 µM | 2.93 | 2.28 | 4.48 | 1.55 µM | 3.34 | 1.62 µM | 3.34 | 1.45 | 2.97
8 | COC(=O)[C@@H](C)C[C@H](Cc1ccccc1)NC(=O)c1nc([C@@H](C[C@H](C(C)C)N(C)C(=O)[C@@H](NC(=O)[C@H]2CC(=O)CCN2C)C(C)C)OC(C)=O)sc1C(C)C | 0.48 | > 16.7 | 0.0427 µM | > 16.7 | 0.132 | > 6.76 | 0.794 µM | > 16.7 | 0.0684 | > 16.7 | 0.373 µM | 3.28 | 0.119 | > 16.7 | 0.951 µM | > 10.5 | 0.0722 µM | > 16.7 | 0.217 | 1.18
9 | CCN(CC)CCN1C(=O)c2cccc3cc(N)cc(c23)C1=O | – | > 100 | – | > 100 | – | 66.9 | – | > 100 | – | 44.2 | – | 51.9 | – | 26.1 | – | 66.8 | – | 24.6 | – | 32.1
10 | CC1(C)CC[C@]2(C(=O)O)CC[C@]3(C)C(=CC[C@@H]4[C@@]5(C)C/C(=C/c6cccnc6)[C@H](O)C(C)(C)[C@@H]5CC[C@]43C)[C@@H]2C1 | 9.47 | > 100 | 5.25 µM | > 100 | 4.58 | 32.7 | 6.11 µM | > 100 | 3.1 | > 100 | 14.9 µM | 57.3 | 13.4 | 36.2 | 4.64 µM | 19.2 | 4.72 µM | 36.4 | 16.7 | 51.3
11 | CC[C@@]12CC(C(=O)OC)=C3Nc4ccccc4[C@@]34CCN(C[C@H]3O[C@H]31)[C@@H]24 | > 100 | > 100 | 46 µM | > 100 | 41.3 | > 100 | > 100 µM | > 100 | 23.2 | > 100 | 47.6 µM | > 100 | 30.5 | > 100 | 34.9 µM | > 100 | 17.7 µM | > 100 | 31.7 | > 100
12 | Nc1nc(N)c2nc(CNc3ccc(C(=O)NC(CCC(=O)O)C(=O)O)cc3)cnc2n1 (stereo not given) | < 0.01 | > 100 | 0.0101 µM and < 0.01 µM | > 100 | < 0.01 | > 100 | < 0.01 µM | > 100 | < 0.01 | > 100 | > 23.1 µM and 6.99 µM | > 100 | 0.921 | > 100 | 0.0262 µM and < 0.01 µM | > 100 | 0.0274 µM and < 0.01 µM | > 100 | < 0.01 | > 100
13 | Nc1nc(-c2ccccn2)c(-c2ccc3ncccc3n2)s1 | > 25 | > 25 | > 25 µM | > 25 | > 25 | > 25 | > 25 µM | > 25 | > 25 | > 25 | > 25 µM | > 25 | > 25 | > 25 | > 25 µM | > 25 | > 25 µM | > 25 | > 25 | > 25
14 | CCc1ccc2cc3c(ccc4ccccc43)c3c2c1CC3 | > 100 | > 100 | 0.6 µM | > 100 | > 100 | > 100 | > 100 µM | > 100 | > 100 | > 100 | > 100 µM | > 100 | > 100 | > 100 | > 100 µM | > 100 | > 100 µM | > 100 | > 100 | > 100
15 | FC(F)(F)c1ccc(-c2cnc(-c3nn[nH]n3)nc2NC2CCCCCC2)cc1 | > 10 | > 10 | > 10 µM | > 10 | > 10 | > 10 | > 10 µM | > 10 | > 10 | > 10 | > 10 µM | > 10 | > 10 | > 10 | > 10 µM | > 10 | > 10 µM | > 10 | > 10 | > 10
16 | CCCCCCCCCCCCNC(=O)N[C@H](C(=O)N[C@H]1/C=C/OCCNC(=O)/C=C/[C@H](C(C)C)NC1=O)C(C)C | 13.7 | 34.1 | 0.385 µM | > 100 | 4.72 | 30 | 51.3 µM | > 100 | 9.15 | > 100 | 11.7 µM | 49.3 | 39.3 | > 100 | > 100 µM | > 100 | 3.1 µM | 39 | 20.2 | > 70.3
17 | CN(C)c1ccc(-c2cc(-c3cccc(NS(C)(=O)=O)c3)nc(N)c2C#N)cc1 | 0.0515 | > 87.8 | 0.238 µM | 17.9 | 0.0381 | 1.75 | 0.067 µM | 23.3 | 0.0372 | 48.5 | 0.11 µM | 1.52 | 0.948 | 47.9 | 0.0562 µM | 45 | 0.0357 µM | 19.8 | 0.0262 | 13.4
18 | C=C(CN1CCc2ccccc2C1)c1ccc(C(=O)Nc2cccc(N)c2)cc1 | 20.6 | 44.7 | 17.5 µM | 42.8 | 16.5 | 33.7 | 28.8 µM | 87.1 | 7.53 | 30 | 18.1 µM | 44.8 | 15.1 | 34.1 | 16 µM | 59.7 | 17.1 µM | 33.3 | 15.4 | 29.1
19 | CN1CC[C@H](N(C)C(=O)N2CC(c3cc(F)ccc3F)=C[C@@]2(CO)c2ccccc2)[C@H](F)C1 | 0.058 | > 100 | 0.00333 µM | 77.6 | 0.0277 | > 100 | 0.0373 µM and 0.0195 µM | > 100 | 0.00744 | > 100 | 0.0112 µM | 15.3 | – | 27.9 | 7.74 µM | > 100 | 0.0386 µM | 25 | 0.00202 | 0.00507
20 | COc1ccc(-c2cc(-c3ccc(Cl)cc3)c(C#N)c(=O)n2CCCCCC(=O)Nc2ccccc2N)cc1 | 4.31 | > 100 | 3.25 µM | > 100 | 4.58 | 27 | 4.18 µM | > 100 | 3.37 | > 100 | 7.12 µM | > 100 | 3.19 | 20.3 | 3.96 µM | > 100 | 2.4 µM | 8.56 | 2.44 | 6.57
21 | COc1cc2nc(NC3CCC3)nc(NC3CCN(C(C)C)CC3)c2cc1OC | 3.97 | 26.2 | 2.96 µM | 13 | 4.01 | 14.7 | 2.7 µM | 7.4 | 0.902 | 10.2 | 1.84 µM | 3.79 | 1.76 | 3.23 | 1.43 µM | 2.78 | 1.79 µM | 3.35 | 1.88 | 3.46
22 | CCN(CC)c1ccc(C=C2C(=O)NC(=S)NC2=O)cc1 | 3.83 | 13.4 | 3.85 µM | 13.2 | 4.52 | 16.6 | 5.82 µM | 18.5 | 3.1 | 10.7 | 3.49 µM | 10.6 | 2.98 | 7.49 | 1.62 µM | 3.61 | 2.26 µM | 6.72 | 6.6 | 21
23 | CCOc1ccc(-c2nc3ccc(-c4nc5ccc(N6CCN(C)CC6)cc5[nH]4)cc3[nH]2)cc1OCC | 2.66 | 14.5 | 0.498 µM | 3.05 | 3.88 | 15.8 | 3.48 µM | 13.9 | 0.778 | 9.01 | 2.25 µM | 7.09 | 0.222 | 1.23 | 12.4 µM | 35.9 | 0.643 µM | 2.58 | 0.831 | 3.84
24 | CC(C)OC(=O)OCOP(=O)(OCOC(=O)OC(C)C)C1CCCN(O)C1=O (stereo not given) | 0.619 | > 100 | 1.52 µM | > 100 | 0.879 | > 100 | 0.888 µM | > 100 | 0.81 | > 100 | 0.632 µM | > 100 | 0.856 | > 100 | 0.197 µM | 68.1 | 0.704 µM | 3.29 | 2.67 | > 100
